Data on 16 compounds can be found in ChEMBL document CHEMBL1201862, “PubChem BioAssay data set” (2004).

The target in data set [1] is Eukaryotic translation initiation factor 4E (Mus musculus, UniProt P63073). As to the kind of experiment: blockers of eIF4G binding by eIF4E – biochemical, TR-FRET, dose response (AID 855).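 Also: potency for disrupting eIF4E binding to eIF4GI seen as loss of FRET.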 Type of data set: functional. For orientation: TR-FRET usually uses a lanthanide donor and a delayed reading to cut background.
Data set [2] has as its system Streptococcus. The data set can be described thus: GAS UMAA2166 growth inhibition – luminescence, BacTiterGlo, counter-screen for streptokinase expression inhibitor project, dose response (AID 1915).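 Also: potency for reduction of bacterial viability or growth.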 Format: functional, organism-based. On the technique in general: A counterscreen serves to expose hits that act by an unwanted route or on another target.
The test system of data set [3] is Streptococcus sp. 'group A'. The data set can be described thus: Streptococcus pyogenes SK(-)GAS viability under kanamycin – luminescence, BacTiterGlo, confirmation, counter-screen for streptokinase expression inhibitor project, dose response (AID 1900). Type of data set: functional, organism-based.
Data set [4] is described as follows: Vero E6 cell cytotoxicity, dose response, cytotoxicity control for non-replicating M. tuberculosis project, secondary assay (AID 492998). Type of data set: functional, VeroE6. As to conditions: Vero C1008.
In data set [5] the target is T1, Streptokinase A (Streptococcus pyogenes serotype M1, UniProt P10520).
T1 sequence (P10520 whole entry): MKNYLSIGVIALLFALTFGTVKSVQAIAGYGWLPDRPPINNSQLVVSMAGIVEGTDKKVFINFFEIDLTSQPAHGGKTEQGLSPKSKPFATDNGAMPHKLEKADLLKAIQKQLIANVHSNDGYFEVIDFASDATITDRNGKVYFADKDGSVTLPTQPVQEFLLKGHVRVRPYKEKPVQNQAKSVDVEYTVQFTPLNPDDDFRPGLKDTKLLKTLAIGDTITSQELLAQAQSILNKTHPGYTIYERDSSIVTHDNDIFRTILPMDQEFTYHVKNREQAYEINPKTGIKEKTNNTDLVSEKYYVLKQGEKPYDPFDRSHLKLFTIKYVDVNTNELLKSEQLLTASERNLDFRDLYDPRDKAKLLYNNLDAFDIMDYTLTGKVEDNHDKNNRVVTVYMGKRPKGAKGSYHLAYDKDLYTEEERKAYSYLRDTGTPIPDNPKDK
As to the kind of experiment: viability-normalized secreted streptokinase activity reduction – plasminogen activation absorbance, OD405, dose response (AID 1914).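 Also: secreted streptokinase activity via plasminogen activation per viability signal from cell pellet.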 Format: functional, Streptococcus pyogenes M1 GAS.

A short description of data set [6]: cells. Format: functional.
The target of data set [7] is Large T antigen (Simian virus 40, UniProt P03070). Type of data set: functional, Betapolyomavirus macacae.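 Also: Confirmatory-stage PubChem screen for compounds that inhibit SV40 T antigen.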
The subject of data set [8] is Vero. As to the kind of experiment: cells. Format: functional. The conditions noted are these: Chlorocebus sabaeus.
The nature of data set [9]: alpha-synuclein stem-loop luciferase translation blockers – H4 neuroglioma cells, luminescence, confirmation (AID 1988). Format: functional, cell-based.
Data set [10] in a line: luciferase reporter signal suppression in cells – H4 neuroglioma cells, luminescence, dose response (AID 1990). Type of data set: functional, cell-based. A general note: A reporter such as luciferase makes a cellular process visible.
A short description of data set [11]: Luminescence Cell-Based Dose Retest to Confirm Inhibitors of Cancer Stem Cells. [Related pubchem assays (depositor defined):AID2717, AID2721]. Type of data set: functional. As to conditions: Homo sapiens.
A short description of data set [12]: Luminescence Cell-Based Dose Response HTS to Identify Inhibitors of 5'UTR Stem-Loop Driven Prion Protein mRNA Translation in H4 Neuroglioblastoma Cells. [Related pubchem assays: 1827 (Project Summary), 1813 (Primary HTS)]. Format: functional.
Data set [13] has as its target T2, Carboxy-terminal domain RNA polymerase II polypeptide A small phosphatase 1 (Homo sapiens, UniProt Q9GZU7).
T2 sequence (Q9GZU7 whole entry): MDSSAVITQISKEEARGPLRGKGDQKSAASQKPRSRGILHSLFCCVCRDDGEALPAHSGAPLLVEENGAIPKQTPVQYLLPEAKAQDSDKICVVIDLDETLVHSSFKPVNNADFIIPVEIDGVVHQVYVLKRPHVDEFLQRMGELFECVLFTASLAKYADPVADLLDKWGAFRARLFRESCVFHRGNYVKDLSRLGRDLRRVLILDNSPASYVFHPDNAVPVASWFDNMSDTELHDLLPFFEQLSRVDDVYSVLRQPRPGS
The data set can be described thus: CTDSP1 inhibitors, concentration-response, biochemical, absorbance readout, ultra-high-throughput screen actives (AID 540297). Type of data set: functional.

Data set [14] deals with T3, Heat shock factor protein 1 (Mus musculus, UniProt P38532).
T3 sequence (P38532 whole entry): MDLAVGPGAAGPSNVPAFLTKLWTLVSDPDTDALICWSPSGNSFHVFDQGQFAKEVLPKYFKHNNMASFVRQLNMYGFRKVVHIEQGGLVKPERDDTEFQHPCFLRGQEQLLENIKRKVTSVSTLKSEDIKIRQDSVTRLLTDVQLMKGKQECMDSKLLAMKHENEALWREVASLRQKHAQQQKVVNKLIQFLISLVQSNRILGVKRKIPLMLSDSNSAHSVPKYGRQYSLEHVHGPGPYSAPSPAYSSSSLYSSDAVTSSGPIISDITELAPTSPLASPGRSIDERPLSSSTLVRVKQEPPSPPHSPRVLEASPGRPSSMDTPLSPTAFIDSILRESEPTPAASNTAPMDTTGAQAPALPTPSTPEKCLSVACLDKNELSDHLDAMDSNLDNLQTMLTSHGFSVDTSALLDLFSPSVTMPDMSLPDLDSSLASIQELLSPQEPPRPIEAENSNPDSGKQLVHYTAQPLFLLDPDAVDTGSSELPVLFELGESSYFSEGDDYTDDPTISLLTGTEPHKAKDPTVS
The data set can be described thus: enhancement of HSF1-driven luciferase signal – cell-based, NIH3T3, luminescence, dose retest, confirmation (AID 435004).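 Also: stress induced by proteasome inhibitor MG132 added 30 min after compound; luciferase reporter driven by HSF1 response element in NIH3T3 cells; actives raise luminescence as potentiators of the MG132 stress response.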 Type of data set: functional.

A short description of data set [15]: THP-1 cell cytotoxicity, dose response, cytotoxicity control for non-replicating M. tuberculosis project (AID 489025). Type of data set: functional.
Data set [16] concerns the target Glucose-6-phosphate 1-dehydrogenase (Homo sapiens, UniProt P11413). The data set can be described thus: inhibition of Homo sapiens G6PD, dose series – biochemical, fluorescence, selectivity assay for P. falciparum G6PD inhibitor project, dose response (AID 504792). Format: functional.
The target in data set [17] is T4, Rac GTPase-activating protein 1 (Homo sapiens, UniProt Q9H0H5).
T4 sequence (Q9H0H5 whole entry): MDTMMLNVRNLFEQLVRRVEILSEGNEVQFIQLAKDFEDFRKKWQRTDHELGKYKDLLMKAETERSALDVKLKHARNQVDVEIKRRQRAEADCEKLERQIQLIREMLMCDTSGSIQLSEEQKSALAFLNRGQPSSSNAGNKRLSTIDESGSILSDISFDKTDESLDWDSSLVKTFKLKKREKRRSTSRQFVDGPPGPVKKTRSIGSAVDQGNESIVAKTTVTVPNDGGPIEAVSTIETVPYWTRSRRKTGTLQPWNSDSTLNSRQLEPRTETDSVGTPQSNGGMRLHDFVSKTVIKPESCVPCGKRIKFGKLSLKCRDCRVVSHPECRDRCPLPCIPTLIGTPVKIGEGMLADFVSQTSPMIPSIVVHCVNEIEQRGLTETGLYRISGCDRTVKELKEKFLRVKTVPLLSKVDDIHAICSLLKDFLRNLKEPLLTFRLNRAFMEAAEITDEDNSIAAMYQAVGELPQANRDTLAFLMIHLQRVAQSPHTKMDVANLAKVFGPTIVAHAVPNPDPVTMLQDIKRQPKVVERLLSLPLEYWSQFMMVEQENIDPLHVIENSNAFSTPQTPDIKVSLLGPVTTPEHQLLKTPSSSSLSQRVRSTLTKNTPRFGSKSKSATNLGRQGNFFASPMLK
The data set can be described thus: blockers of MgcRacGAP-driven Rac1 GTP hydrolysis – biochemical, ADP Hunter fluorescence, primary and confirmatory, confirmation (AID 624330). Format: functional.

The target of data set [18] is 72 kDa type IV collagenase (Homo sapiens, UniProt P08253). As to the kind of experiment: Dose Response validation of uHTS RPN11 inhibitor hits using a MMP-2 Fluorescence assay. Format: functional.
Data set [19] addresses 26S proteasome non-ATPase regulatory subunit 14 (Homo sapiens, UniProt O00487). As to the kind of experiment: inhibition of proteasome subunit RPN11 – biochemical, fluorescence polarization, uHTS hits, confirmation (AID 602368). Format: functional.
Data set [20] addresses Prothrombin (Bos taurus, UniProt P00735). As to the kind of experiment: thrombin protease inhibitors – biochemical, fluorescence polarization, uHTS hits, dose response (AID 602369). Type of data set: functional.
The target in data set [21] is FAD-linked sulfhydryl oxidase ALR (Homo sapiens, UniProt P55789). The data set can be described thus: ALR-catalysed DTT oxidation blockers – biochemical, H2O2 detection, luminescence, cherry-pick, dose response (AID 493248).
In data set [22] the test system is Vero. The data set can be described thus: viability of Vero cells under compound – cytotoxicity control for flavivirus capping enzyme inhibitors (AID 588742). Type of data set: functional. As to conditions: Chlorocebus sabaeus.
Data set [23] deals with Cytochrome P450 2C9 (Homo sapiens, UniProt P11712).
Data set [24] addresses Induced myeloid leukemia cell differentiation protein Mcl-1 (Homo sapiens, UniProt Q07820). Type of data set: functional.

Calls of active or inactive are those of the source. Some results are limits rather than exact numbers.

Chain of Large T antigen (P03070 whole entry): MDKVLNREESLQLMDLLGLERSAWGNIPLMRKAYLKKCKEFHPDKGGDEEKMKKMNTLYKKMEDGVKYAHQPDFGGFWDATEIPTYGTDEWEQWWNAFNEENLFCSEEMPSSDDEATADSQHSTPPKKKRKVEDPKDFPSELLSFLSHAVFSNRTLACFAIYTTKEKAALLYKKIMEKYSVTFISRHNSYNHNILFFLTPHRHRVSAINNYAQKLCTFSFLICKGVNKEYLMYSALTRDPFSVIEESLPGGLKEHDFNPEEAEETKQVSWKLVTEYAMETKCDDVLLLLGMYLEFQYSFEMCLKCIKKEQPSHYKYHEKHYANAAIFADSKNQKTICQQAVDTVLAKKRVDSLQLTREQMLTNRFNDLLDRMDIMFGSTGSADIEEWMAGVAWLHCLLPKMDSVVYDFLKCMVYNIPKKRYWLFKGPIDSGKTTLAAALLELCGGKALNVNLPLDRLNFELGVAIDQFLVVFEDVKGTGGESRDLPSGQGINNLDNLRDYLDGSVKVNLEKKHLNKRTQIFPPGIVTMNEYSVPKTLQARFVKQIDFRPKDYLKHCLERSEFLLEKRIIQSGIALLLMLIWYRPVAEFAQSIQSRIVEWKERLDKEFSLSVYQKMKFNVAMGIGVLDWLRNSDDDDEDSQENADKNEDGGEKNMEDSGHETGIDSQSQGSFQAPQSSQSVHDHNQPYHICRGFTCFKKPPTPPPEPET
Chain of Eukaryotic translation initiation factor 4E (P63073 whole entry): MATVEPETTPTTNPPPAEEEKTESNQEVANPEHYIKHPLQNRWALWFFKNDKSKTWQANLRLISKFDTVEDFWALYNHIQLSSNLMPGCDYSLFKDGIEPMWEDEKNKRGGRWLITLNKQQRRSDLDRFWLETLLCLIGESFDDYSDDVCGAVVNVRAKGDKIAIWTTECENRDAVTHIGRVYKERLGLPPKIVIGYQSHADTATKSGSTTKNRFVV
Chain of Glucose-6-phosphate 1-dehydrogenase (P11413 whole entry): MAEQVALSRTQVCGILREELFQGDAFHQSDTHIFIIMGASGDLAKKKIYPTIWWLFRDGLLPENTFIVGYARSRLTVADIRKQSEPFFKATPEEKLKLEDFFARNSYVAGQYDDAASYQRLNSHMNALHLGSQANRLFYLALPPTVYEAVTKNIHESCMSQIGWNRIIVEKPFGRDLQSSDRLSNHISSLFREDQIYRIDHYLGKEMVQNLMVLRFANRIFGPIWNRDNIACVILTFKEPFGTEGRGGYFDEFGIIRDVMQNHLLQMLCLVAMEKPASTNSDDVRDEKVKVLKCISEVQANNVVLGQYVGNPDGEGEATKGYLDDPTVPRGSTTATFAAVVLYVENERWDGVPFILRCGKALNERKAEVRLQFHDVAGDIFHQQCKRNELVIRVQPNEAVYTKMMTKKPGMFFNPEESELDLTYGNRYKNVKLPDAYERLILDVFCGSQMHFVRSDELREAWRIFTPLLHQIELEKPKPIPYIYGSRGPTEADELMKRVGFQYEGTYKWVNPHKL
Chain of FAD-linked sulfhydryl oxidase ALR (P55789 whole entry): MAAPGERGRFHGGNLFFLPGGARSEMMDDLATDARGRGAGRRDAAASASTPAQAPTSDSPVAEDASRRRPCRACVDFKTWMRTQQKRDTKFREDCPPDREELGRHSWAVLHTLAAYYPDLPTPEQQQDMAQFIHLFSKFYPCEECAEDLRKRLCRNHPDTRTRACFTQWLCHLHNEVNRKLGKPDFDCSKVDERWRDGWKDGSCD
Chain of Cytochrome P450 2C9 (P11712 whole entry): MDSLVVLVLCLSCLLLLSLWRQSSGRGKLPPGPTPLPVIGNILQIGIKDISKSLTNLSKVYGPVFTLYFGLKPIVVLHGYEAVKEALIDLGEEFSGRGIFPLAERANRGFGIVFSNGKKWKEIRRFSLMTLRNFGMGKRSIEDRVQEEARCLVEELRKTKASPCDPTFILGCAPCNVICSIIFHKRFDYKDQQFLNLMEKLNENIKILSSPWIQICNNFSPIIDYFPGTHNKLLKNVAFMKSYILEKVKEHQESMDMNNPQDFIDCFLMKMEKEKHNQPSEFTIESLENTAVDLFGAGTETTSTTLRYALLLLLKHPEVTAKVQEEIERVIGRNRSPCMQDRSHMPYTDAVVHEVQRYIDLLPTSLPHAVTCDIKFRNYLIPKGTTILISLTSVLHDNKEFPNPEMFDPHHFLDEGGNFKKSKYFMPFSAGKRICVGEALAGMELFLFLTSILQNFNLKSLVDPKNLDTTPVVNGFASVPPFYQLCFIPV
Chain of Induced myeloid leukemia cell differentiation protein Mcl-1 (Q07820 whole entry): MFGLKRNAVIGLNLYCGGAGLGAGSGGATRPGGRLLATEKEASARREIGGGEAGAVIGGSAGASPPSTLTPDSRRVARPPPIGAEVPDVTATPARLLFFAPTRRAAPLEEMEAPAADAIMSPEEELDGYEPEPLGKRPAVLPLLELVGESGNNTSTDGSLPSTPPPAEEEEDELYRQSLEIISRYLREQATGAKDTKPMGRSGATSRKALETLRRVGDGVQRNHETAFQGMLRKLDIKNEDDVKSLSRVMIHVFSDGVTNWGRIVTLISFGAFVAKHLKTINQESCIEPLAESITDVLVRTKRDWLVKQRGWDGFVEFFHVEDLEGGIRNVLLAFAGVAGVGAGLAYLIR
Chain of 72 kDa type IV collagenase (P08253 whole entry): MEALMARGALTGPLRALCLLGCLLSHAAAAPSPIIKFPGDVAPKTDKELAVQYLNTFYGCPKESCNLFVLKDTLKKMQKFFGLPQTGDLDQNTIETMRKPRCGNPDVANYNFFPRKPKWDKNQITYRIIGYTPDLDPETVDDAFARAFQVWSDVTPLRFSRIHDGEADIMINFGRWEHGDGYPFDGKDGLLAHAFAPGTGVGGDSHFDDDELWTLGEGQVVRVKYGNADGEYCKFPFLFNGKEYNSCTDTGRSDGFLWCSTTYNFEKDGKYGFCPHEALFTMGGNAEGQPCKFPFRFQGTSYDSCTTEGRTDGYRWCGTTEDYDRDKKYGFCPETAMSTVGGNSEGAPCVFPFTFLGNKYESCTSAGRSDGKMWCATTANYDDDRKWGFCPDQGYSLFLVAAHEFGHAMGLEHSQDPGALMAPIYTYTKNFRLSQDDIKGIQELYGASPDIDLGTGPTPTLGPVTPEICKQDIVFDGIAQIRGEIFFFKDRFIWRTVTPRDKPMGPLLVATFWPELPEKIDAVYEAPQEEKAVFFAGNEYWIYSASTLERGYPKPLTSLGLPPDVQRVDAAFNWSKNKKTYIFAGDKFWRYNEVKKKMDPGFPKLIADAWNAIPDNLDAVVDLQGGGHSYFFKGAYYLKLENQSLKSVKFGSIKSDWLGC
Chain of 26S proteasome non-ATPase regulatory subunit 14 (O00487 whole entry): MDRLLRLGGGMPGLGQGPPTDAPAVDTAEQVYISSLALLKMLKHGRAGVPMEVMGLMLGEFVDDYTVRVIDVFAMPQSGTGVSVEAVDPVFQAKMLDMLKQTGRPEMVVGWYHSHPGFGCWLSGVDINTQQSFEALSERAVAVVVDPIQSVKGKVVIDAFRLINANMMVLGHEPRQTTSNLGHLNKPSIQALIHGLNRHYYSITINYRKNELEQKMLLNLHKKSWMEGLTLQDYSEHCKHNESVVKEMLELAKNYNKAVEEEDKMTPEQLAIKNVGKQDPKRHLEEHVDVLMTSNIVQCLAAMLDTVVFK

As a reminder, the IC50 is the concentration that inhibits the measured activity by half. Take `Cc1cccc(-c2nnc(SCC3CNC(=O)O3)n2-c2ccc(Cl)cc2)c1` (stereo not given): in data set [1], the IC50 is > 64 µM (inactive).
Broadly, the EC50 is the concentration giving half of the maximal effect. One may read the CC50 as the concentration that lowers cell viability or growth by half. On to `O=C(Nc1nccs1)c1sc2ccccc2c1Cl`, for which the EC50 in [2] was > 150 µM (not active); in [3], 18.4 µM (active); in data set [5] it was > 150 µM (not active). Also, the CC50 in [4] is > 20 µM (active). In [6], the IC50 was 20.5 µM (active).
On to `CCCCN1C(=O)/C(=C(/C#N)C(N)=O)c2ccccc21`, for which the IC50 in data set [7] was 60.5 µM (active).
What is called AC50 is the concentration giving half of the maximal activity seen. For `COc1ccc(CCn2c(C3CCCCC3)nc3c(c(=O)c4ccccc4n3C)c2=O)cc1`, the CC50 in data set [8] is 9.23 µM (active). The EC50 in [9] is 17.1 µM (active); in [10] it was > 120 µM (not active); in [12], 0.438 µM (active). In data set [11], the AC50 was 2.4 µM (active).
Regarding `CC[N+]1=CN(c2ccccc2)C(C)=CC1(C)C`, the IC50 in [13] is 6.23 µM (active).
For `CC1(C)CC(=O)C2=C(C1)OC(N)=C(C#N)C2C#Cc1ccccc1` (stereo not given), in data set [14], the EC50 was 38.3 µM (active). The CC50 in data set [15] was 38.4 µM (active).
As to `Cc1cc(OCC[N+]2(C)CCCCC2)nc2ccccc12`, the IC50 in data set [13] is 3.69 µM (active).
As for `O=C(c1ccc2ccccc2c1)N1CCN(c2ccc(O)cc2)CC1`, the IC50 in data set [7] was 9.84 µM (active).
For the compound `O=C1NC(=S)N(Cc2ccco2)C(=O)/C1=C\c1cccs1`, the IC50 in [1] is 9.49 µM (active).
Regarding `CC(=O)c1cccc(NC(=O)c2cnn(-c3ccccc3)c2C)c1`, in data set [16], the IC50 was > 80 µM (inactive).
Turning to `O=C(CNC1CCCC1)Nc1ccc(N2CCCCCC2)cc1`, the IC50 in data set [17] is 75.8 µM (active); in data set [6], 17.8 µM (active). For the same compound, in data set [4], the half-maximal cytotoxic concentration (CC50) is 18.1 µM (active).
Consider `O=C(O)c1ccc(COc2ccccc2/C=C2/NC(=O)N(c3cccc(Cl)c3)C2=O)cc1`, for which the IC50 in [18] is 15.6 µM (active); in [13], 2.75 µM (active); in [19], 18.7 µM (active); in data set [20] it was > 100 µM (inactive).
As for `N#Cc1ccc(-c2csc(NC3=NCCCCC3)n2)cc1`, the IC50 in [1] was > 64 µM (inactive).
In the case of `CCN(CC)c1ccc(NC(=O)c2cccc(F)c2)c(C)c1`, the IC50 in [7] is 28.3 µM (active). Besides, the AC50 in [21] was 1.19 µM (active); in data set [23], “inconclusive”. Moreover, the CC50 in data set [22] is > 40 µM (active).
For the compound `O=C1CSC(=S)N1/N=C/c1ccc(O)c([N+](=O)[O-])c1`, the IC50 in data set [7] is 26.8 µM (active); in data set [24] it was 6.99 µM (active).
For `COc1cc(/C=N\Nc2cc(=O)n(C)c(=O)n2C)ccc1O`, the IC50 is 23.7 µM (active) in data set [7] and 33.7 µM (active) in [17].
